Data as given in the kinase profiling compilation of Christmann-Franck et al. (2016).

Columns and labels:
Assay in all cases: radiometric filter-binding kinase assay, Kinase HotSpot
Conditions in all cases: compound 0.5 µM; ATP 10 µM
CDK5 CDK5R1 p25 (human) = CDK5 CDK5R1 p25 (human) (UniProt Q00535+Q15078)
MAP3K10 (human) = MAP3K10 (human) (UniProt Q02779)
CDC42BPA (human) = CDC42BPA (human) (UniProt Q5VT25)
PLK1 (human) = PLK1 (human) (UniProt P53350)
PTK2 (human) = PTK2 (human) (UniProt Q05397)
EPHA3 (human) = EPHA3 (human) (UniProt P29320)
RPS6KA1 KD1 KD2 (human) = RPS6KA1 KD1 KD2 (human) (UniProt Q15418)
NTRK2 (human) = NTRK2 (human) (UniProt Q16620)
ERBB2 (human) = ERBB2 (human) (UniProt P04626)
PIM2 (human) = PIM2 (human) (UniProt Q9P1W9)
CHUK (human) = CHUK (human) (UniProt O15111)
ADRBK1 (human) = ADRBK1 (human) (UniProt P25098)
TBK1 (human) = TBK1 (human) (UniProt Q9UHD2)
FGFR3 (human) = FGFR3 (human) (UniProt P22607)
NUAK1 (human) = NUAK1 (human) (UniProt O60285)
NUAK1 (human), sequence (O60285 whole entry, looked up): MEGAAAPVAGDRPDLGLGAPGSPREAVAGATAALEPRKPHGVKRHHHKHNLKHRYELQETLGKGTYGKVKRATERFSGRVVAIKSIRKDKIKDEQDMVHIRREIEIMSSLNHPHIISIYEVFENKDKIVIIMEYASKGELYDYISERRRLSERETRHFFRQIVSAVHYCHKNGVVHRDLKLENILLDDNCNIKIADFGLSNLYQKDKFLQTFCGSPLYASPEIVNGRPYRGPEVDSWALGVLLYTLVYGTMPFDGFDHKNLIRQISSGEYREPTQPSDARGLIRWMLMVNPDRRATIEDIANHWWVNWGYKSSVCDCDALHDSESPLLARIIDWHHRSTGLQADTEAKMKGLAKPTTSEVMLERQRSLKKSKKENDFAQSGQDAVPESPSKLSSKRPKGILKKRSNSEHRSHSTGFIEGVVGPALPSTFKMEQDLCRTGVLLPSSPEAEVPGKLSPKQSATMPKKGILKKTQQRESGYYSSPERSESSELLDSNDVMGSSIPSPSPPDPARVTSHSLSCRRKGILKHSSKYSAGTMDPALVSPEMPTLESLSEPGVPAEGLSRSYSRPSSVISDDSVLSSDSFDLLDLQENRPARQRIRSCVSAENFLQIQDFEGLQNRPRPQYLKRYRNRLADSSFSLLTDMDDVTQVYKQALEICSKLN

MAP4K5 (human) = MAP4K5 (human) (UniProt Q9Y4K4)
NTRK3 (human) = NTRK3 (human) (UniProt Q16288)
NTRK3 (human), sequence (Q16288 whole entry, looked up): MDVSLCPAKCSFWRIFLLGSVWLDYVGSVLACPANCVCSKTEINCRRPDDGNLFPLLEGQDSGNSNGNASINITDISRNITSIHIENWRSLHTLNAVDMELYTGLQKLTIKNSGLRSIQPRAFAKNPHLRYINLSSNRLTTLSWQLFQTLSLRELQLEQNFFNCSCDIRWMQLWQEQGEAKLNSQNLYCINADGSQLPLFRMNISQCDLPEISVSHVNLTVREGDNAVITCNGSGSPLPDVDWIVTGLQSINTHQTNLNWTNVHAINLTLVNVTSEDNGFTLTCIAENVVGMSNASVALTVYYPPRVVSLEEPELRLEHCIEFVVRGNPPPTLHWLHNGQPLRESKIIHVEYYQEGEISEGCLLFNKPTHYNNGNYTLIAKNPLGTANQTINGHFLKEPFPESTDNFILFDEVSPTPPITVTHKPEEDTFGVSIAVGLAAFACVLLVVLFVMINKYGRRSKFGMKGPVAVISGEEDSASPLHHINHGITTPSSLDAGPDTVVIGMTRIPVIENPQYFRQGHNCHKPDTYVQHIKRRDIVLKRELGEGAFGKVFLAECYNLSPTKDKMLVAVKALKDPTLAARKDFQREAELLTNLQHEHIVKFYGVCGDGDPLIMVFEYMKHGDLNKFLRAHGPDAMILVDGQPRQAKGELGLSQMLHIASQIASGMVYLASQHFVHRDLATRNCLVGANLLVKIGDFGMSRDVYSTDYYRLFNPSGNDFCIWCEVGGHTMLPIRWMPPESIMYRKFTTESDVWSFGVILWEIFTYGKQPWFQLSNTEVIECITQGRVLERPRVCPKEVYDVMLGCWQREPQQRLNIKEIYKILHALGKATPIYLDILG

WNK3 (human) = WNK3 (human) (UniProt Q9BYP7)
PRKCA (human) = PRKCA (human) (UniProt P17252)
AKT3 (human) = AKT3 (human) (UniProt Q9Y243)
AKT3 (human), sequence (Q9Y243 whole entry, looked up): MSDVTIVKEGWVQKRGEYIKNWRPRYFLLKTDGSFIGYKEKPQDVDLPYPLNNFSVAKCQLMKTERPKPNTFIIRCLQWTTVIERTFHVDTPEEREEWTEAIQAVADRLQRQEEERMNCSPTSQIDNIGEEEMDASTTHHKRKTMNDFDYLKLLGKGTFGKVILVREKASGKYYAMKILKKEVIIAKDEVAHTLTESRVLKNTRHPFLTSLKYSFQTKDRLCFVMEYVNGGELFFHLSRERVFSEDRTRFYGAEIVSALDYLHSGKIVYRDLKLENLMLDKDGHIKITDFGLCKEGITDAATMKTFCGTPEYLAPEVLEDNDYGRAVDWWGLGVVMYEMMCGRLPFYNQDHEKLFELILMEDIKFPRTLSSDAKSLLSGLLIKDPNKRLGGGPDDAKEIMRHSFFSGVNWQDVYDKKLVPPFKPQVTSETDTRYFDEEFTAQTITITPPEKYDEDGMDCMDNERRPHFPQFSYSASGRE

PRKCI (human) = PRKCI (human) (UniProt P41743)
PRKCI (human), sequence (P41743 whole entry, looked up): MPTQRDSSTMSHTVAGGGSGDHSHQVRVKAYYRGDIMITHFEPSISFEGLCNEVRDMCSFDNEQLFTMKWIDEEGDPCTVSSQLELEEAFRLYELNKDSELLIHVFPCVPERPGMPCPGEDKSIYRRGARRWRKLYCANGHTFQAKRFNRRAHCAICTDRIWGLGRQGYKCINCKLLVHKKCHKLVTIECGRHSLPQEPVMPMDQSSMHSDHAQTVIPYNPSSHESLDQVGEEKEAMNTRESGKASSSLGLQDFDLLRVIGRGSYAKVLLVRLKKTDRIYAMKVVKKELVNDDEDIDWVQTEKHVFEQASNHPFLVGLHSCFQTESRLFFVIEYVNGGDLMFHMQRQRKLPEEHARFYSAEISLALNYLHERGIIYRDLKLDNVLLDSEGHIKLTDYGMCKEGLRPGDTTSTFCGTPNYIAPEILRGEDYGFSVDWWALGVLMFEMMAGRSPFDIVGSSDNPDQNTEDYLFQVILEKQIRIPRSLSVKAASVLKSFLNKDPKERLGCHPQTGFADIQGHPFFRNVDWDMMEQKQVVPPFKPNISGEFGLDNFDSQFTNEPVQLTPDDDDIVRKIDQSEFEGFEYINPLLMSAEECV

MAPK13 (human) = MAPK13 (human) (UniProt O15264)
CSNK1E (human) = CSNK1E (human) (UniProt P49674)
STK17A (human) = STK17A (human) (UniProt Q9UEE5)
STK17A (human), sequence (Q9UEE5 whole entry, looked up): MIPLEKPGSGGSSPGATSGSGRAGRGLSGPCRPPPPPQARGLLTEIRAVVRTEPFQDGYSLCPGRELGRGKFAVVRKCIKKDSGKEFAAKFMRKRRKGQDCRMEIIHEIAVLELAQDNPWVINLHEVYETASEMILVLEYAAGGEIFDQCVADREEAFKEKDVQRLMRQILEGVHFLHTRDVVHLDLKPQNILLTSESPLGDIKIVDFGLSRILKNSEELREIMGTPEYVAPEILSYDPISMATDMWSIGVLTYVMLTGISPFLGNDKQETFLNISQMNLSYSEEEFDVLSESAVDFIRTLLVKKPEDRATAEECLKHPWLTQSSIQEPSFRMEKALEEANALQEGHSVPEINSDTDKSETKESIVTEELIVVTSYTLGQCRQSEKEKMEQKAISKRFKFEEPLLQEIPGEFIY

[1] = target: TYK2 JH1 catalytic (human) (UniProt P29597)
CLK3 (human) = CLK3 (human) (UniProt P49761)
CLK3 (human), sequence (P49761 whole entry, looked up): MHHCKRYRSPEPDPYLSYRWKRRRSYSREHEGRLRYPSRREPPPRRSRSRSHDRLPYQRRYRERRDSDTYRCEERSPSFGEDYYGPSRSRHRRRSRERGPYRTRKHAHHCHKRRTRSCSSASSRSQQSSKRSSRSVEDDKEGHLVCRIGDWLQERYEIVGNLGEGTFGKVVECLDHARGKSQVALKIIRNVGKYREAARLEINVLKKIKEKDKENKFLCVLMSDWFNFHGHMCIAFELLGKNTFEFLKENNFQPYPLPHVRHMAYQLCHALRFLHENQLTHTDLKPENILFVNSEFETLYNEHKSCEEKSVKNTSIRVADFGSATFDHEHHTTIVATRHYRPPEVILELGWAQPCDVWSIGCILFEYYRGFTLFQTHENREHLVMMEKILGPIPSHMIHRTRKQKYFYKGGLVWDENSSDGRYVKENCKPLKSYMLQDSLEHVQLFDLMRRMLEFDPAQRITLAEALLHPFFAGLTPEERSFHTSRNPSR

CAMK1 (human) = CAMK1 (human) (UniProt Q14012)
MARK4 (human) = MARK4 (human) (UniProt Q96L34)
IGF1R (human) = IGF1R (human) (UniProt P08069)
MAPK12 (human) = MAPK12 (human) (UniProt P53778)
PAK4 (human) = PAK4 (human) (UniProt O96013)
CDK9 CCNT1 (human) = CDK9 CCNT1 (human) (UniProt P50750+O60563)
FYN (human) = FYN (human) (UniProt P06241)
NTRK1 (human) = NTRK1 (human) (UniProt P04629)
NTRK1 (human), sequence (P04629 whole entry, looked up): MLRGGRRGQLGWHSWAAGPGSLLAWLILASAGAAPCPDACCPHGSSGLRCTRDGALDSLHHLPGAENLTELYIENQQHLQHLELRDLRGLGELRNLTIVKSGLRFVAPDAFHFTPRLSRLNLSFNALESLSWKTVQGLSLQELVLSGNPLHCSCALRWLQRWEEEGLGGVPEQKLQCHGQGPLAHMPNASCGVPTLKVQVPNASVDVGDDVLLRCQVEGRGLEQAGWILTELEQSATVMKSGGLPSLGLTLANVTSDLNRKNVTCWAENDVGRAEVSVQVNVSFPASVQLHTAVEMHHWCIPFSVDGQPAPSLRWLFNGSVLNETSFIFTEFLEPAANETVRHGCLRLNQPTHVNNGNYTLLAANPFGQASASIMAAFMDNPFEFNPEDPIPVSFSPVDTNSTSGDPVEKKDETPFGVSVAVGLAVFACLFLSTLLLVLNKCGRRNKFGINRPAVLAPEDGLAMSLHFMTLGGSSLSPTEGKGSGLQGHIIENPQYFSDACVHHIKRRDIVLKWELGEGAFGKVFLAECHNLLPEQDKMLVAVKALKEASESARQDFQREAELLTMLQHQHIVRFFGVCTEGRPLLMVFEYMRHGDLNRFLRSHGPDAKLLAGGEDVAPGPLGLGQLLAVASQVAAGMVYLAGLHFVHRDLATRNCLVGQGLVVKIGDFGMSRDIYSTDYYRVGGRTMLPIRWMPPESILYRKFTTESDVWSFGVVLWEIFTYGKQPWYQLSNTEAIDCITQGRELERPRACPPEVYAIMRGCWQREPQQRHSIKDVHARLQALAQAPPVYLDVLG

MAPK11 (human) = MAPK11 (human) (UniProt Q15759)
MAPK11 (human), sequence (Q15759 whole entry, looked up): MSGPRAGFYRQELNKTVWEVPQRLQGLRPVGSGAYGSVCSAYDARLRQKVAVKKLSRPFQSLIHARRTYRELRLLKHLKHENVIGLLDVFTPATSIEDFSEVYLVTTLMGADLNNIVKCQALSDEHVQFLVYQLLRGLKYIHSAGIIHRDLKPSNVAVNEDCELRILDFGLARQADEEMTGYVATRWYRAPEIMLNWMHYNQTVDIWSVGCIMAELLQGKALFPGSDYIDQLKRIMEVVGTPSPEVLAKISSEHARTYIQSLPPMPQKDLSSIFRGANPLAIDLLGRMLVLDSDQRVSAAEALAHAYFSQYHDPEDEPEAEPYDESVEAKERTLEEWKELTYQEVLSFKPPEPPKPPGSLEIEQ

TSSK2 (human) = TSSK2 (human) (UniProt Q96PF2)
HIPK2 (human) = HIPK2 (human) (UniProt Q9H2X6)
MAPK3 (human) = MAPK3 (human) (UniProt P27361)
MAPK3 (human), sequence (P27361 whole entry, looked up): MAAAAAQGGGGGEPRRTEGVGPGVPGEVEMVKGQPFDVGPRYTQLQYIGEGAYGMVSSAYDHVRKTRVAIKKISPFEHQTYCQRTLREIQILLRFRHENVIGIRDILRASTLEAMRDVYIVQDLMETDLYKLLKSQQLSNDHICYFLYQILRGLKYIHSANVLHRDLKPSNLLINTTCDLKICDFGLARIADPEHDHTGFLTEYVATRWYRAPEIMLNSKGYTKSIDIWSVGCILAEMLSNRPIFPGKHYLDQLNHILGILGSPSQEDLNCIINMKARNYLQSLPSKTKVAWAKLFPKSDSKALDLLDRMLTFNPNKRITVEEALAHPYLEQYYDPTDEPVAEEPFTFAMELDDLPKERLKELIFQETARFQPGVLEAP

RIPK2 (human) = RIPK2 (human) (UniProt O43353)
PRKX (human) = PRKX (human) (UniProt P51817)
AKT2 (human) = AKT2 (human) (UniProt P31751)
PRKCH (human) = PRKCH (human) (UniProt P24723)

COc1cc2ncnc(Nc3ccc(F)c(Cl)c3)c2cc1OCCCN1CCOCC1
residual activity (CDK5 CDK5R1 p25 (human)): 95.4% | residual activity (MAP3K10 (human)): 109% | residual activity (CDC42BPA (human)): 87.8% | residual activity (PLK1 (human)): 97% | residual activity (PTK2 (human)): 103% | residual activity (EPHA3 (human)): 94.4% | residual activity (RPS6KA1 KD1 KD2 (human)): 97.3% | residual activity (NTRK2 (human)): 98.2% | residual activity (ERBB2 (human)): 34.2% | residual activity (PIM2 (human)): 96.2% | residual activity (CHUK (human)): 94.9% | residual activity (ADRBK1 (human)): 93.3% | residual activity (TBK1 (human)): 83.1% | residual activity (FGFR3 (human)): 79.3% | residual activity (NUAK1 (human)): 99.1% | residual activity (MAP4K5 (human)): 80% | residual activity (NTRK3 (human)): 103% | residual activity (WNK3 (human)): 102% | residual activity (PRKCA (human)): 93.6% | residual activity (AKT3 (human)): 84.6% | residual activity (PRKCI (human)): 96.9% | residual activity (MAPK13 (human)): 94.7% | residual activity (CSNK1E (human)): 106% | residual activity (STK17A (human)): 96% | residual activity [1]: 102% | residual activity (CLK3 (human)): 106% | residual activity (CAMK1 (human)): 102% | residual activity (MARK4 (human)): 94.2% | residual activity (IGF1R (human)): 92.3% | residual activity (MAPK12 (human)): 97.5% | residual activity (PAK4 (human)): 90.2% | residual activity (CDK9 CCNT1 (human)): 87.3% | residual activity (FYN (human)): 92.2% | residual activity (NTRK1 (human)): 103% | residual activity (MAPK11 (human)): 95.1% | residual activity (TSSK2 (human)): 91.5% | residual activity (HIPK2 (human)): 99.7% | residual activity (MAPK3 (human)): 100%

C#Cc1cccc(Nc2ncnc3cc(OCCOC)c(OCCOC)cc23)c1
residual activity (CDK5 CDK5R1 p25 (human)): 90.5% | residual activity (MAP3K10 (human)): 108% | residual activity (CDC42BPA (human)): 88.5% | residual activity (PLK1 (human)): 100% | residual activity (PTK2 (human)): 108% | residual activity (RIPK2 (human)): 57.9% | residual activity (EPHA3 (human)): 93.2% | residual activity (RPS6KA1 KD1 KD2 (human)): 97.6% | residual activity (NTRK2 (human)): 93.1% | residual activity (ERBB2 (human)): 52.8% | residual activity (PIM2 (human)): 97.9% | residual activity (CHUK (human)): 94.2% | residual activity (ADRBK1 (human)): 92.9% | residual activity (PRKX (human)): 111% | residual activity (NUAK1 (human)): 98% | residual activity (MAP4K5 (human)): 95.6% | residual activity (NTRK3 (human)): 96% | residual activity (WNK3 (human)): 101% | residual activity (PRKCA (human)): 88.6% | residual activity (AKT3 (human)): 74.6% | residual activity (PRKCI (human)): 99% | residual activity (MAPK13 (human)): 95% | residual activity (CSNK1E (human)): 98.2% | residual activity (STK17A (human)): 99.7% | residual activity (CLK3 (human)): 108% | residual activity (CAMK1 (human)): 98.9% | residual activity (MARK4 (human)): 102% | residual activity (IGF1R (human)): 91.6% | residual activity (MAPK12 (human)): 97.8% | residual activity (PAK4 (human)): 91.8% | residual activity (AKT2 (human)): 108% | residual activity (CDK9 CCNT1 (human)): 87.3% | residual activity (FYN (human)): 94.7% | residual activity (NTRK1 (human)): 102% | residual activity (MAPK11 (human)): 97.8% | residual activity (TSSK2 (human)): 87.6% | residual activity (HIPK2 (human)): 99.3% | residual activity (PRKCH (human)): 116% | residual activity (MAPK3 (human)): 101%

CSc1nc(-c2ccc(F)cc2)c(-c2ccnc(NC(C)c3ccccc3)c2)[nH]1 (stereo not drawn)
residual activity (CDK5 CDK5R1 p25 (human)): 76.1% | residual activity (MAP3K10 (human)): 90.6% | residual activity (CDC42BPA (human)): 97.5% | residual activity (PLK1 (human)): 99.1% | residual activity (PTK2 (human)): 99.1% | residual activity (RIPK2 (human)): 85.1% | residual activity (EPHA3 (human)): 82.5% | residual activity (RPS6KA1 KD1 KD2 (human)): 99.4% | residual activity (NTRK2 (human)): 88.5% | residual activity (ERBB2 (human)): 99.2% | residual activity (PIM2 (human)): 87.9% | residual activity (CHUK (human)): 98.4% | residual activity (ADRBK1 (human)): 102% | residual activity (TBK1 (human)): 92% | residual activity (FGFR3 (human)): 83.7% | residual activity (PRKX (human)): 91.5% | residual activity (NUAK1 (human)): 94.3% | residual activity (MAP4K5 (human)): 85.6% | residual activity (NTRK3 (human)): 93.6% | residual activity (WNK3 (human)): 97.6% | residual activity (PRKCA (human)): 108% | residual activity (AKT3 (human)): 91.5% | residual activity (PRKCI (human)): 91.9% | residual activity (MAPK13 (human)): 93.9% | residual activity (CSNK1E (human)): 72% | residual activity (STK17A (human)): 97.8% | residual activity [1]: 96.5% | residual activity (CLK3 (human)): 85.4% | residual activity (CAMK1 (human)): 96.2% | residual activity (MARK4 (human)): 74.6% | residual activity (IGF1R (human)): 101% | residual activity (PAK4 (human)): 96.4% | residual activity (AKT2 (human)): 96.8% | residual activity (CDK9 CCNT1 (human)): 99.1% | residual activity (FYN (human)): 98.7% | residual activity (NTRK1 (human)): 91.2% | residual activity (MAPK11 (human)): 41.7% | residual activity (TSSK2 (human)): 78.2% | residual activity (HIPK2 (human)): 99.9% | residual activity (PRKCH (human)): 94.5% | residual activity (MAPK3 (human)): 68%
